This passage reports IC50 results from patent publication US10703764B2, “Benzopiperazine compositions as BET bromodomain inhibitors” (FORMA Therapeutics, Inc., priority 2013, dated 2020).

The target in one assay is T1, BRD4 BD1 (Homo sapiens, UniProt O60885).
T1 construct: made in house
The assay can be described thus: AlphaScreen binding assay, BRD4 Bromodomain 1. The essentials: (§1)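 An AlphaScreen competition format was used with His-BRD4 BD1 or BD2 and biotin-H4 K5/8/12/16-acetyl peptide, each at matched final levels of 50 nM (BD1) or 100 nM (BD2). Incubation in HEPES/NaCl buffer with 0.1% BSA and 0.01% Triton X-100 ran ≥1 h before IC50 determination.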
In general terms: Alpha assays give light when donor and acceptor beads are brought close together.

Another assay deals with T2, BRD4 BD2 (Homo sapiens, UniProt O60885).
T2 construct: made in house
The assay can be described thus: AlphaScreen binding assay, BRD4 Bromodomain 2. The essentials:
as §1

Another assay has as its system MV4-11 cells. Description: Oncology cell growth assay (3-day proliferation, CellTiter-Glo). The assay is classed as cell-based. Particulars: Homo sapiens, MV4-11, 72 h, AML cell line MV4-11, 72 hours, compounds grouped by IC50 range, read-out: MV4-11 IC50 (inhibition of proliferation, gIC50). The method, then: The impact of Example compounds on cancer cell proliferation was determined using the acute myelocytic leukemia (AML) cell line MV4-11 (ATCC) in a 3-day proliferation assay. MV4-11 cells were maintained in RPMI 1640 media supplemented with 10% FBS at 37° C. and an atmosphere of 5% CO2. For compound testing, compound dilutions series were prepared in DMSO via a 3-fold serial dilution from 2 mM to 0.001 mM in 384-well white flat bottom plates. The final compound concentrations in the wells were 10, 3.3, 1.1, 0.37, 0.12, 0.041, 0.013 and 0.0045 μM. MV4-11 cells were plated at a density of 3000 cells/well in final volume of 50 μl culture media and incubated for 72 hours. […] Luminescent signal from the CellTiter-Glo assay was read on an EnVision multilabel plate reader (PerkinElmer). Values for the concentration that inhibited cell growth by 50% (gIC50) between the DMSO control and background control (no cells) were determined using IDBS Activity Base software with a four parameter logistic curve fit by the equation y=A+((B−A)/(1+((C/x)^D))), wherein A denotes the bottom plateau of the curve, B denotes the top plateau of the curve, C denotes the x value at the middle of the curve, D denotes the slope factor, x denotes the original known x values, and y denotes the original known y values. Data was fitted using the Levenburg Marquardt algorithm.
(In ATP-based viability assays light output follows the ATP content of the culture.)

Some results are limits rather than exact numbers.

Turning to `COCCn1cc(-c2ccc3c(c2)N(C(=O)OC(C)C)C[C@H](C)N3C(C)=O)cn1` [Example I-17, (S)-isopropyl 4-acetyl-7-(1-(2-methoxyethyl)-1H-pyrazol-4-yl)-3-methyl-3,4-dihydroquinoxaline-1(2H)-carboxylate], the IC50 is 100 to 1000 nM on BRD4 BD1, under 50 nM at BRD4 BD2 and 100 to 500 nM in the assay with MV4-11 cells.

`COCCn1cc(-c2ccc3c(c2)N(C(=O)c2ccco2)C[C@H](C)N3C(C)=O)cn1` [Example I-18, (S)-1-(4-(furan-2-carbonyl)-6-(1-(2-methoxyethyl)-1H-pyrazol-4-yl)-2-methyl-3,4-dihydroquinoxalin-1(2H)-yl)ethanone]: the values for the IC50 on BRD4 BD1, on BRD4 BD2 and with MV4-11 cells were 100 to 1000 nM, under 50 nM and 100 to 500 nM, respectively.

As for `CCOC(=O)N1C[C@H](C)N(C(C)=O)c2ccc(-c3cn[nH]c3)cc21` [Example I-19, (S)-ethyl 4-acetyl-3-methyl-7-(1H-pyrazol-4-yl)-3,4-dihydroquinoxaline-1(2H)-carboxylate], the IC50 on BRD4 BD1 was 1000 to 10000 nM; on BRD4 BD2, 50 to 500 nM; in the assay with MV4-11 cells it was 100 to 500 nM.

As to `CC(=O)N1c2ccc(-c3cn[nH]c3)cc2N(C(=O)OC2CCCC2)C[C@@H]1C` [Example I-20, (S)-cyclopentyl 4-acetyl-3-methyl-7-(1H-pyrazol-4-yl)-3,4-dihydro-quinoxaline-1(2H)-carboxylate], the figures for the IC50 on BRD4 BD1, on BRD4 BD2 and with MV4-11 cells were under 100 nM, 50 to 500 nM and 100 to 500 nM, respectively.

In the case of `CCOC(=O)N1C[C@H](C)N(C(C)=O)c2ccc(-c3cnn(C4CC4)c3)cc21` [Example I-21, (S)-ethyl 4-acetyl-7-(1-cyclopropyl-1H-pyrazol-4-yl)-3-methyl-3,4-dihydroquinoxaline-1(2H)-carboxylate], the IC50 at BRD4 BD1 was in the range of 100 to 1000 nM; on BRD4 BD2 it was 50 to 500 nM; with MV4-11 cells, 100 to 500 nM.

For the compound `CC(=O)N1c2ccc(-c3cnn(C4CC4)c3)cc2N(C(=O)OC(C)C)C[C@@H]1C` [Example I-22, (S)-isopropyl 4-acetyl-7-(1-cyclopropyl-1H-pyrazol-4-yl)-3-methyl-3,4-dihydroquinoxaline-1(2H)-carboxylate], the IC50 on BRD4 BD1 is 100 to 1000 nM; on BRD4 BD2 it was 50 to 500 nM; in the assay with MV4-11 cells, under 100 nM.

For `CC(=O)N1c2ccc(-c3cnn(C4CC4)c3)cc2N(C(=O)OC2CCCC2)C[C@@H]1C` [Example I-23, (S)-cyclopentyl 4-acetyl-7-(1-cyclopropyl-1H-pyrazol-4-yl)-3-methyl-3,4-dihydroquinoxaline-1(2H)-carboxylate], the IC50 was under 100 nM on BRD4 BD1, 50 to 500 nM on BRD4 BD2 and under 100 nM in the assay with MV4-11 cells.

As to `CC(=O)N1c2ccc(-c3cnn(C4CCC4)c3)cc2N(C(=O)OC(C)C)C[C@@H]1C` [Example I-24, (S)-isopropyl 4-acetyl-7-(1-cyclobutyl-1H-pyrazol-4-yl)-3-methyl-3,4-dihydroquinoxaline-1(2H)-carboxylate], the IC50 at BRD4 BD1 is under 100 nM; at BRD4 BD2, 50 to 500 nM; in the assay on MV4-11 cells, 100 to 500 nM.

`CC(=O)N1c2ccc(-c3cnn(C4CCC4)c3)cc2N(C(=O)OC2CCCC2)C[C@@H]1C` [Example I-25, (S)-cyclopentyl 4-acetyl-7-(1-cyclobutyl-1H-pyrazol-4-yl)-3-methyl-3,4-dihydroquinoxaline-1(2H)-carboxylate]: the IC50 at BRD4 BD1 was under 100 nM; on BRD4 BD2 it was under 50 nM; in the assay on MV4-11 cells, under 100 nM.

For `CC(=O)N1c2ccc(-c3cnn(C4CC4)c3)cc2N(C(=O)OC2CC(F)(F)C2)C[C@@H]1C` [Example I-26, (S)-3,3-difluorocyclobutyl 4-acetyl-7-(1-cyclopropyl-1H-pyrazol-4-yl)-3-methyl-3,4-dihydroquinoxaline-1(2H)-carboxylate], the IC50 at BRD4 BD1 is 100 to 1000 nM; on BRD4 BD2, 50 to 500 nM; in the assay with MV4-11 cells, 100 to 500 nM.

For the compound `CC(=O)N1c2ccc(-c3cnn(CCO)c3)cc2N(C(=O)OC2CC(F)(F)C2)C[C@@H]1C` [Example I-27, (S)-3,3-difluorocyclobutyl 4-acetyl-7-(1-(2-hydroxyethyl)-1H-pyrazol-4-yl)-3-methyl-3,4-dihydroquinoxaline-1(2H)-carboxylate], the values for the IC50 at BRD4 BD1, at BRD4 BD2 and in the assay with MV4-11 cells were 100 to 1000 nM, 50 to 500 nM and 100 to 500 nM, respectively.

For the compound `CC(=O)N1c2ccc(-c3cnn(CC(C)(C)O)c3)cc2N(C(=O)OC2CC(F)(F)C2)C[C@@H]1C` [Example I-28, (S)-3,3-difluorocyclobutyl 4-acetyl-7-(1-(2-hydroxy-2-methylpropyl)-1H-pyrazol-4-yl)-3-methyl-3,4-dihydroquinoxaline-1(2H)-carboxylate], the values for the IC50 on BRD4 BD1, at BRD4 BD2 and in the assay on MV4-11 cells were 100 to 1000 nM, 50 to 500 nM and over 500 nM, respectively.

For the compound `CC(=O)N1c2ccc(-c3ccc(N4CCCS4(=O)=O)cc3)cc2N(C(=O)OC2CC(F)(F)C2)C[C@@H]1C` [Example I-29, 3,3-difluorocyclobutyl (3S)-4-acetyl-7-[4-(1,1-dioxo-1λ^6,2-thiazolidin-2-yl)phenyl]-3-methyl-1,2,3,4-tetrahydroquinoxaline-1-carboxylate], the values for the IC50 on BRD4 BD1, at BRD4 BD2 and with MV4-11 cells were 100 to 1000 nM, over 500 nM and over 500 nM, respectively.

Turning to `CC(=O)N1c2ccc(-c3ccc(NS(C)(=O)=O)cc3)cc2N(C(=O)OC2CC(F)(F)C2)C[C@@H]1C` [Example I-30, (S)-3,3-difluorocyclobutyl 4-acetyl-3-methyl-7-(4-(methylsulfonamido)phenyl)-3,4-dihydroquinoxaline-1(2H)-carboxylate], the IC50 at BRD4 BD1 is 100 to 1000 nM; on BRD4 BD2, over 500 nM; in the assay with MV4-11 cells it was over 500 nM.

`CC(=O)N1c2ccc(-c3ccc(NS(C)(=O)=O)cc3)cc2N(C(=O)OC2CCC(F)(F)CC2)C[C@@H]1C` [Example I-31, (S)-4,4-difluorocyclohexyl 4-acetyl-3-methyl-7-(4-(methylsulfonamido)phenyl)-3,4-dihydroquinoxaline-1(2H)-carboxylate]: the IC50 was in the range of 100 to 1000 nM on BRD4 BD1, 50 to 500 nM at BRD4 BD2 and 100 to 500 nM in the assay on MV4-11 cells.

Take `CC(=O)N1c2ccc(-c3cnn(C4CC4)c3)cc2N(C(=O)OC2CCC(F)(F)CC2)C[C@@H]1C` [Example I-33, (S)-4,4-difluorocyclohexyl 4-acetyl-7-(1-cyclopropyl-1H-pyrazol-4-yl)-3-methyl-3,4-dihydroquinoxaline-1(2H)-carboxylate]: the IC50 on BRD4 BD1 lay within 100 to 1000 nM; on BRD4 BD2, 50 to 500 nM; in the assay with MV4-11 cells, 100 to 500 nM.

As for `CC(=O)N1c2ccc(-c3cnn(CCO)c3)cc2N(C(=O)OC2CCC(F)(F)CC2)C[C@@H]1C` [Example I-34, (S)-4,4-difluorocyclohexyl 4-acetyl-7-(1-(2-hydroxyethyl)-1H-pyrazol-4-yl)-3-methyl-3,4-dihydroquinoxaline-1(2H)-carboxylate], the IC50 at BRD4 BD1 lay in the range of 100 to 1000 nM; at BRD4 BD2 it was 50 to 500 nM; with MV4-11 cells it was 100 to 500 nM.

On to `CC(=O)N1c2ccc(-c3cnn(CC(C)(C)O)c3)cc2N(C(=O)OC2CCC(F)(F)CC2)C[C@@H]1C` [Example I-35, (S)-4,4-difluorocyclohexyl 4-acetyl-7-(1-(2-hydroxy-2-methylpropyl)-1H-pyrazol-4-yl)-3-methyl-3,4-dihydroquinoxaline-1(2H)-carboxylate], for which the IC50 at BRD4 BD1 lay within 100 to 1000 nM; at BRD4 BD2, 50 to 500 nM; in the assay on MV4-11 cells, 100 to 500 nM.
